Laboratory results taken from the supplement of paper PMC4862054.

Tests used:
Conditions in all cases: incubation time: 72 h
[1] = test system: CAL-148; assay: normalised response (% of control), CellTiter-Glo; higher = more viable cells (100 = DMSO, 0 = benzethonium chloride kill control)
Outline: (§1)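 After 72 h with compound in 384-well plates, breast cancer cell lines seeded as 20 µl suspension were read for CellTox Green fluorescence at 485/520 nm. CellTiter-Glo luminescence was then read after 10 min at room temperature. Compound was present at 5 concentrations in 10-fold steps over a 10,000-fold range set per compound, and plates were normalised to 0.1 % DMSO (100) and a positive kill control (0). Values are normalised signals, each at a single concentration.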

[2] = test system: BT-549; assay: as above
Outline: as §1

[3] = test system: Hs578T; assay: as above
Outline: as §1

[4] = test system: BT-474; assay: as above
Outline: as §1

[5] = test system: MCF-10A; assay: as above
Outline: as §1

[6] = test system: HCC1599; assay: as above
Outline: as §1

[7] = test system: DU-4475; assay: as above
Outline: as §1

[8] = test system: HCC1937; assay: as above
Outline: as §1

[9] = test system: SK-BR-3; assay: as above
Outline: as §1

[10] = test system: MDA-MB-436; assay: as above
Outline: as §1

[11] = test system: CAL-51; assay: as above
Outline: as §1

[12] = test system: MDA-MB-453; assay: as above
Outline: as §1

[13] = test system: HDQ-P1; assay: as above
Outline: as §1

[14] = test system: HCC1143; assay: as above
Outline: as §1

[15] = test system: CAL-85-1; assay: as above
Outline: as §1

[16] = test system: MDA-MB-468; assay: as above
Outline: as §1

[17] = test system: MDA-MB-231; assay: as above
Outline: as §1

[18] = test system: CAL-120; assay: as above
Outline: as §1

[19] = test system: MFM-223; assay: as above
Outline: as §1

[20] = test system: CAL-148; assay: normalised viability (% of control), CellTiter-Blue; higher = more viable cells (100 = DMSO, 0 = benzethonium chloride kill control)
Outline: (§2)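 Normalised viability is given for a single listed concentration of the series. In 384-well plates, breast cancer cell lines were incubated 72 h with compound, then read with CellTiter-Blue (2 h, 37 °C) at 560/590 nm. Per-plate scaling set vehicle to 100 and a positive kill control to 0, with Z'-factor quality control.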

[21] = test system: BT-549; assay: as above
Outline: as §2

[22] = test system: Hs578T; assay: as above
Outline: as §2

[23] = test system: BT-474; assay: as above
Outline: as §2

[24] = test system: HCC1599; assay: as above
Outline: as §2

[25] = test system: DU-4475; assay: as above
Outline: as §2

[26] = test system: HCC1937; assay: as above
Outline: as §2

[27] = test system: SK-BR-3; assay: as above
Outline: as §2

[28] = test system: MDA-MB-436; assay: as above
Outline: as §2

[29] = test system: CAL-51; assay: as above
Outline: as §2

[30] = test system: MDA-MB-453; assay: as above
Outline: as §2

[31] = test system: HDQ-P1; assay: as above
Outline: as §2

[32] = test system: HCC1143; assay: as above
Outline: as §2

[33] = test system: CAL-85-1; assay: as above
Outline: as §2

[34] = test system: MDA-MB-468; assay: as above
Outline: as §2

[35] = test system: MDA-MB-231; assay: as above
Outline: as §2

[36] = test system: CAL-120; assay: as above
Outline: as §2

[37] = test system: MFM-223; assay: as above
Outline: as §2

Nc1ccn([C@@H]2O[C@H](CO)[C@@H](O)[C@@H]2O)c(=O)n1 [Cytarabine] (1 nM)
normalised response [1]: 99.7% | normalised response [2]: 93.5% | normalised response [3]: 102% | normalised response [4]: 103% | normalised response [5]: 112% | normalised response [6]: 108% | normalised response [7]: 100% | normalised response [8]: 99.3% | normalised response [9]: 101% | normalised response [10]: 102% | normalised response [11]: 75.7% | normalised response [12]: 99.8% | normalised response [13]: 96.6% | normalised response [14]: 97.6% | normalised response [15]: 98.8% | normalised response [16]: 97.8% | normalised response [17]: 93.3% | normalised response [18]: 98.7% | normalised response [19]: 103% | normalised viability [20]: 106% | normalised viability [21]: 86.8% | normalised viability [22]: 93.9% | normalised viability [23]: 75.4% | normalised viability [24]: 111% | normalised viability [25]: 111% | normalised viability [26]: 95.3% | normalised viability [27]: 101% | normalised viability [28]: 101% | normalised viability [29]: 89.8% | normalised viability [30]: 96.3% | normalised viability [31]: 96.5% | normalised viability [32]: 108% | normalised viability [33]: 101% | normalised viability [34]: 98.1% | normalised viability [35]: 92.2% | normalised viability [36]: 96.1% | normalised viability [37]: 102%

Cc1ccc(F)c(NC(=O)Nc2ccc(-c3cccc4[nH]nc(N)c34)cc2)c1 [Linifanib] (0.1 nM)
normalised response [1]: 112% | normalised response [2]: 97% | normalised response [3]: 100% | normalised response [4]: 107% | normalised response [5]: 105% | normalised response [6]: 115% | normalised response [7]: 105% | normalised response [8]: 102% | normalised response [9]: 112% | normalised response [10]: 107% | normalised response [11]: 105% | normalised response [12]: 122% | normalised response [13]: 102% | normalised response [14]: 100% | normalised response [15]: 98.8% | normalised response [16]: 102% | normalised response [17]: 102% | normalised response [18]: 101% | normalised response [19]: 105% | normalised viability [20]: 117% | normalised viability [21]: 109% | normalised viability [22]: 99.3% | normalised viability [23]: 116% | normalised viability [24]: 110% | normalised viability [25]: 110% | normalised viability [26]: 92.4% | normalised viability [27]: 107% | normalised viability [28]: 149% | normalised viability [29]: 101% | normalised viability [30]: 112% | normalised viability [31]: 115% | normalised viability [32]: 116% | normalised viability [33]: 94.7% | normalised viability [34]: 130% | normalised viability [35]: 100% | normalised viability [36]: 95.4% | normalised viability [37]: 103%

OC[C@H]1O[C@@H](n2cnc3c2N=CNC[C@H]3O)C[C@@H]1O [Pentostatin] (1 nM)
normalised response [1]: 104% | normalised response [2]: 93.8% | normalised response [3]: 98.4% | normalised response [4]: 98.7% | normalised response [5]: 107% | normalised response [6]: 121% | normalised response [7]: 103% | normalised response [8]: 100% | normalised response [9]: 108% | normalised response [10]: 83.4% | normalised response [11]: 111% | normalised response [12]: 107% | normalised response [13]: 100% | normalised response [14]: 103% | normalised response [15]: 94.8% | normalised response [16]: 101% | normalised response [17]: 98.8% | normalised response [18]: 96.7% | normalised response [19]: 99.8% | normalised viability [20]: 118% | normalised viability [21]: 91.7% | normalised viability [22]: 109% | normalised viability [23]: 82.4% | normalised viability [24]: 114% | normalised viability [25]: 102% | normalised viability [26]: 81.8% | normalised viability [27]: 86.8% | normalised viability [28]: 99% | normalised viability [29]: 89.3% | normalised viability [30]: 110% | normalised viability [31]: 108% | normalised viability [32]: 96.9% | normalised viability [33]: 99.5% | normalised viability [34]: 105% | normalised viability [35]: 96.6% | normalised viability [36]: 114% | normalised viability [37]: 93.2%
